Experimental data: ChEMBL document CHEMBL4483862, “Open-source discovery of chemical leads for next-generation chemoprotective antimalarials” (2018)

Test system: Plasmodium berghei
Experiment: Luciferase/luciferin-expressing antifolate-resistant parasites were used to infect a culture of HepG2 cells that were pre-incubated with compounds. Infected hepatocytes emit light due to the luciferase reaction. Assay results are presented as the percent inhibition of light emission compared to control. […]
Type: functional
Details: sporozoite; for IC90: read-out: LUCIFERASE INFECTION ASSAY - IC90

SMILES	IC90 [µM]	also measured
CCCCCCCCC/C(=N\O)c1ccccn1	11.9	IC50 (HEPG2TOX_HILL_SLOPE 8.74, HEPG2TOX_R_SQUARED 0.63, PBLUC_HILL_SLOPE 40.5, PBLUC_R_SQUARED 0.34, read-out: LUCIFERASE INFECTION ASSAY - IC50): 11.3 µM
O=C1Nc2ccc([N+](=O)[O-])cc2/C1=N/NC(=S)NC1CCCCC1	3.82	IC50 (HEPG2TOX_HILL_SLOPE 8.71, HEPG2TOX_R_SQUARED 0.815, PBLUC_HILL_SLOPE 16.7, PBLUC_R_SQUARED 0.29, read-out: LUCIFERASE INFECTION ASSAY - IC50): 3.35 µM
Cc1cc(C(=O)NNC(=O)c2ccc3ccccc3n2)c2cnn(Cc3cccs3)c2n1	9.16	IC50 (HEPG2TOX_HILL_SLOPE 8.79, HEPG2TOX_R_SQUARED 0.448, PBLUC_HILL_SLOPE 5.17, PBLUC_R_SQUARED 0.697, read-out: LUCIFERASE INFECTION ASSAY - IC50): 5.99 µM
Cc1cc(C(=O)CN2C(=O)C(=O)N(Cc3ccccc3)C2=O)c(C)n1-c1ccc2c(c1)OCO2	> 10	IC50 (HEPG2TOX_HILL_SLOPE 8.65, HEPG2TOX_R_SQUARED 0.666, PBLUC_HILL_SLOPE 3.13, PBLUC_R_SQUARED 0.534, read-out: LUCIFERASE INFECTION ASSAY - IC50): 6.04 µM
COc1ccc(C2C3CCc4ccccc4C3=NN2CCO)cc1 (configuration not stated)	> 10.2	IC50 (HEPG2TOX_HILL_SLOPE 8.7, HEPG2TOX_R_SQUARED 0.737, PBLUC_HILL_SLOPE 7.39, PBLUC_R_SQUARED 0.683, read-out: LUCIFERASE INFECTION ASSAY - IC50): > 10.2 µM
Cc1cc(C(=O)CNC(=O)Nc2ccccc2)c(C)n1-c1ccc(F)c(Cl)c1	9.57	IC50 (HEPG2TOX_HILL_SLOPE 8.63, HEPG2TOX_R_SQUARED 0.403, PBLUC_HILL_SLOPE 1.87, PBLUC_R_SQUARED 0.488, read-out: LUCIFERASE INFECTION ASSAY - IC50): 2.96 µM
CC(=O)c1cccc(NC(=O)Nc2ccc3nc(-c4cccc(C(F)(F)F)c4)nn3c2)c1	9.17	IC50 (HEPG2TOX_HILL_SLOPE 8.68, HEPG2TOX_R_SQUARED 0.208, PBLUC_HILL_SLOPE 3.77, PBLUC_R_SQUARED 0.543, read-out: LUCIFERASE INFECTION ASSAY - IC50): 5.11 µM
Brc1cnc2nc(-c3ccccc3)[nH]c2c1	7.03	IC50 (HEPG2TOX_HILL_SLOPE 8.76, HEPG2TOX_R_SQUARED 0.602, PBLUC_HILL_SLOPE 4.6, PBLUC_R_SQUARED 0.128, read-out: LUCIFERASE INFECTION ASSAY - IC50): 4.36 µM
Cc1cc(N2CCN(Cc3nc(=O)c4cc(Cl)ccc4[nH]3)CC2)nc(C(C)C)n1	> 10	IC50 (HEPG2TOX_HILL_SLOPE 8.69, HEPG2TOX_R_SQUARED 0.562, PBLUC_HILL_SLOPE 3.21, PBLUC_R_SQUARED 0.576, read-out: LUCIFERASE INFECTION ASSAY - IC50): 5.79 µM
C/N=c1\scc(-c2ccc3c(c2)NC(=O)CO3)n1/N=C/c1cc(Br)c(O)c(OC)c1	7.81	IC50 (HEPG2TOX_HILL_SLOPE 8.72, HEPG2TOX_R_SQUARED 0.934, PBLUC_HILL_SLOPE 4.3, PBLUC_R_SQUARED 0.314, read-out: LUCIFERASE INFECTION ASSAY - IC50): 4.68 µM
COc1cc(-c2cnc3cnc(-c4ccccc4N(C)C)cn23)ccc1O	> 9.16	IC50 (HEPG2TOX_HILL_SLOPE 8.81, HEPG2TOX_R_SQUARED 0.374, PBLUC_HILL_SLOPE 9.99, PBLUC_R_SQUARED 0.0967, read-out: LUCIFERASE INFECTION ASSAY - IC50): 7.81 µM
CCOc1ccc(NC(=S)N/N=C/c2cc(Cl)cc([N+](=O)[O-])c2O)cc1	> 10	IC50 (HEPG2TOX_HILL_SLOPE 8.71, HEPG2TOX_R_SQUARED 0.133, PBLUC_HILL_SLOPE 2.29, PBLUC_R_SQUARED 0.38, read-out: LUCIFERASE INFECTION ASSAY - IC50): 6.7 µM
CC1Cc2ccccc2N1C(=O)c1cn(-c2ccccc2)nc1-c1ccc(F)cc1 (configuration not stated)	9.94	IC50 (HEPG2TOX_HILL_SLOPE 8.75, HEPG2TOX_R_SQUARED 0.907, PBLUC_HILL_SLOPE 3.93, PBLUC_R_SQUARED 0.478, read-out: LUCIFERASE INFECTION ASSAY - IC50): 5.68 µM
CC(C)(C)NC(=S)N/N=C/c1cc(I)cc(I)c1O	4.23	IC50 (HEPG2TOX_HILL_SLOPE 8.65, HEPG2TOX_R_SQUARED 0.588, PBLUC_HILL_SLOPE 9.82, PBLUC_R_SQUARED 0.5, read-out: LUCIFERASE INFECTION ASSAY - IC50): 3.38 µM
COc1ccccc1-c1cnn2ccc(Nc3ccccc3)nc12	2.14	IC50 (HEPG2TOX_HILL_SLOPE 8.7, HEPG2TOX_R_SQUARED 0.948, PBLUC_HILL_SLOPE 3.38, PBLUC_R_SQUARED 0.62, read-out: LUCIFERASE INFECTION ASSAY - IC50): 1.12 µM
Cc1ccc(-c2cc(=O)n(-c3ccc(F)cc3)[nH]2)cc1	11.6	IC50 (HEPG2TOX_HILL_SLOPE 8.74, HEPG2TOX_R_SQUARED 0.98, PBLUC_HILL_SLOPE 2.08, PBLUC_R_SQUARED 0.732, read-out: LUCIFERASE INFECTION ASSAY - IC50): 4.04 µM

SMILES	IC90 [µM]	also measured
COc1cc(/C=C(\C#N)c2cccn2C)cc(OC)c1OC	> 11.1	IC50 (HEPG2TOX_HILL_SLOPE 8.79, HEPG2TOX_R_SQUARED 0.806, read-out: LUCIFERASE INFECTION ASSAY - IC50): > 11.1 µM
CN1CCN(c2ccc(-c3cn4c(-c5ccc6c(ccn6C)c5)cnc4cn3)cn2)CC1	> 7.79	IC50 (HEPG2TOX_HILL_SLOPE 8.77, HEPG2TOX_R_SQUARED 0.447, PBLUC_HILL_SLOPE 3.78, PBLUC_R_SQUARED 0.492, read-out: LUCIFERASE INFECTION ASSAY - IC50): 4.51 µM
Cc1ccc2nc(NC(=O)c3ccc(F)cc3)c(C(=O)NC3CCCCC3)n2c1	4.51	IC50 (HEPG2TOX_HILL_SLOPE 8.64, HEPG2TOX_R_SQUARED 0.539, PBLUC_HILL_SLOPE 8.68, PBLUC_R_SQUARED 0.013, read-out: LUCIFERASE INFECTION ASSAY - IC50): 3.5 µM
CCN1/C(=C\C(=O)c2ccccc2Oc2ccccc2)C(C)(C)c2c1ccc1ccccc21	8.43	IC50 (HEPG2TOX_HILL_SLOPE 8.78, HEPG2TOX_R_SQUARED 0.227, PBLUC_HILL_SLOPE 3.21, PBLUC_R_SQUARED 0.612, read-out: LUCIFERASE INFECTION ASSAY - IC50): 4.25 µM
O=C(NCCO)c1cccc(-c2cn3c(-c4ccc(Cl)cc4)cnc3cn2)c1	3.17	IC50 (HEPG2TOX_HILL_SLOPE 8.8, HEPG2TOX_R_SQUARED 0.456, PBLUC_HILL_SLOPE 3.73, PBLUC_R_SQUARED 0.895, read-out: LUCIFERASE INFECTION ASSAY - IC50): 1.76 µM
COc1c(Br)cc([N+](=O)[O-])c(OC)c1C(=O)NC(=O)Nc1cc(C(F)(F)F)cc(C(F)(F)F)c1	5.15	IC50 (HEPG2TOX_HILL_SLOPE 8.68, HEPG2TOX_R_SQUARED 0.501, PBLUC_HILL_SLOPE 19.7, PBLUC_R_SQUARED 0.399, read-out: LUCIFERASE INFECTION ASSAY - IC50): 4.61 µM
CN(Cc1ccc(Cl)s1)C(=O)Cn1ncc(Br)c(Br)c1=O	8.7	IC50 (HEPG2TOX_HILL_SLOPE 8.71, HEPG2TOX_R_SQUARED 0.0596, PBLUC_HILL_SLOPE 2.5, PBLUC_R_SQUARED 0.642, read-out: LUCIFERASE INFECTION ASSAY - IC50): 3.61 µM
CCc1cc(=O)n2nc(Cc3ccccc3)c(-c3ccccc3)c2[nH]1	> 10	IC50 (HEPG2TOX_HILL_SLOPE 8.68, HEPG2TOX_R_SQUARED 0.27, PBLUC_HILL_SLOPE 11.4, PBLUC_R_SQUARED 0.149, read-out: LUCIFERASE INFECTION ASSAY - IC50): 8.75 µM
C=CCn1c(COc2ccc(C(C)(C)C)cc2)nnc1SCC(=O)N(C)C1CCCCC1	> 10	IC50 (HEPG2TOX_HILL_SLOPE 8.72, HEPG2TOX_R_SQUARED 0.783, PBLUC_HILL_SLOPE 29.5, PBLUC_R_SQUARED 0.113, read-out: LUCIFERASE INFECTION ASSAY - IC50): 9.61 µM
Cc1cc2oc(=O)cc(COC(=O)c3ccccc3NCCO)c2cc1C	5.07	IC50 (HEPG2TOX_HILL_SLOPE 8.75, HEPG2TOX_R_SQUARED 0.762, PBLUC_HILL_SLOPE 95.5, PBLUC_R_SQUARED 0.164, read-out: LUCIFERASE INFECTION ASSAY - IC50): 4.95 µM
C=CCn1c(SCc2ccccn2)nc2sccc2c1=O	> 10	IC50 (HEPG2TOX_HILL_SLOPE 8.76, HEPG2TOX_R_SQUARED 0.722, PBLUC_HILL_SLOPE 2.66, PBLUC_R_SQUARED 0.469, read-out: LUCIFERASE INFECTION ASSAY - IC50): 8.34 µM
OCCCNc1nn2c(-c3cccc(Cl)c3)cnc2s1	> 10.7	IC50 (HEPG2TOX_HILL_SLOPE 8.79, HEPG2TOX_R_SQUARED 0.819, PBLUC_HILL_SLOPE 13.4, PBLUC_R_SQUARED 0.184, read-out: LUCIFERASE INFECTION ASSAY - IC50): 9.8 µM
CC(O)c1ccc(-c2ccccc2NC(=O)c2ccccn2)s1 (configuration not stated)	> 10	IC50 (HEPG2TOX_HILL_SLOPE 8.65, HEPG2TOX_R_SQUARED 0.867, read-out: LUCIFERASE INFECTION ASSAY - IC50): > 10 µM
COc1cc(/C=C2\SC(=O)N(CCNC(=O)c3cnccn3)C2=O)ccc1OC(F)F	> 10	IC50 (HEPG2TOX_HILL_SLOPE 8.8, HEPG2TOX_R_SQUARED 0.871, PBLUC_HILL_SLOPE 1.47, PBLUC_R_SQUARED 0.589, read-out: LUCIFERASE INFECTION ASSAY - IC50): > 10 µM
Fc1ccc(N/N=C/Cc2nnnn2-c2ccccc2)cc1	> 11.1	IC50 (HEPG2TOX_HILL_SLOPE 8.77, HEPG2TOX_R_SQUARED 0.625, PBLUC_HILL_SLOPE 4.51, PBLUC_R_SQUARED 0.347, read-out: LUCIFERASE INFECTION ASSAY - IC50): 7.9 µM
